Reference: patent US20240109881A1, “Heteroaryl Compounds as Ligand Directed Degraders of IRAK4” (Bristol-Myers Squibb Company, priority 2022, published 2024)

What was measured:
IRAK4 [1] = biological target: T1, IRAK4 (Homo sapiens, UniProt Q9NWZ3); assay: ALE THP1 HTRF (Advanced Lipoxidation End Product THP1 Homogeneous Time Resolved Fluorescence); format: cell-based; settings: THP1 cells
T1 construct: endogenous in cells; host or cells: THP-1 cells
T1 sequence (Q9NWZ3 1-460): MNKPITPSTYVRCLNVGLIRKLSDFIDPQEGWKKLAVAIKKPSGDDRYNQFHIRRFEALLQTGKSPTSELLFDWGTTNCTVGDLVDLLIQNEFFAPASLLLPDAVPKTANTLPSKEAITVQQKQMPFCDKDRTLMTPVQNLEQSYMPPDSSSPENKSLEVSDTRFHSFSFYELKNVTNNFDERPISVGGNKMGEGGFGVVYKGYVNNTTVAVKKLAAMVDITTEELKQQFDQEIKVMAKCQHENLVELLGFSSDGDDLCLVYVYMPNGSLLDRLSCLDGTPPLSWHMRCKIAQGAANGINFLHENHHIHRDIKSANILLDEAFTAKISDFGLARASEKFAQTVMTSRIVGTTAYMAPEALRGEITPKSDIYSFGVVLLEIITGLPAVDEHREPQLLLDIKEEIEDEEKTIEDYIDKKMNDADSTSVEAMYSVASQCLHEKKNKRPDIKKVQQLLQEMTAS
Method in brief: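 Cells lysed 45 min at room temperature; lysates normalized to total protein by BCA. Total IRAK4 detected by HTRF sandwich (anti-IRAK4-d2 plus anti-IRAK4-cryptate), incubated overnight in the dark at room temperature, read on a time-resolved fluorescence plate reader.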

IRAK4 [2] = biological target: T1, IRAK4; assay: LVL THP1 HTRF (THP1 Homogeneous Time Resolved Fluorescence); format: cell-based; settings: THP1 cells, 18 h incubation with compound; for DC50: read-out: LVL THP1 HTRF EC50
Method in brief: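 THP-1 cells in phenol red-free RPMI with 10% FBS were dosed with compound (20 nL in DMSO) for 18 h at 37° C. After 2 h lysis, IRAK4 was detected with anti-IRAK4-d2/anti-IRAK4-K HTRF antibodies for 18 h at room temperature and read at 665/615 nm; a parallel CTG plate was run.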

Row | Compound | ALE THP1 HTRF YMIN (IRAK4 [1]) [%] | EC50 (IRAK4 [1]) [nM] | LVL THP1 HTRF YMIN (IRAK4 [2]) [%] | DC50 (IRAK4 [2]) [nM]
1 | C[C@H](C#N)Nc1cc(-n2ncc3cc(C#N)cnc32)ncc1C(=O)N[C@H]1CC[C@H](CCN2C[C@@H](C)N(c3ccc(C4CCC(=O)NC4=O)cc3)C[C@@H]2C)CC1 (some centres unmarked) [P-151] | 6.0 | 8 |  | 
2 | C[C@H](C#N)Nc1cc(-n2ncc3cc(C#N)cnc32)ncc1C(=O)N[C@H]1CC[C@H](CCN2CCN(c3ccc(C4CCC(=O)NC4=O)cn3)[C@H](C)C2)CC1 (some centres unmarked) [P-152] | 15.8 | 20 |  | 
3 | COc1cc(N2C[C@H](C)N(CC[C@H]3CC[C@H](NC(=O)c4cnc(-n5ncc6cc(C#N)cnc65)cc4N[C@H](C)C#N)CC3)[C@@H](C)C2)ccc1C1CCC(=O)NC1=O (some centres unmarked) [P-153] | 4.5 | 17 |  | 
4 | N#Cc1cnc2c(cnn2-c2cc(NC3CC3)c(-n3cc([C@H]4CC[C@H](CCN5CCN(c6ccc(C7CCC(=O)NC7=O)cc6)CC5)CC4)nn3)cn2)c1 (some centres unmarked) [P-154] | 10.0 | 22 |  | 
5 | C[C@H](C#N)Nc1cc(-n2ncc3cc(C#N)cnc32)ncc1C(=O)N[C@H]1CC[C@H](CCN2C[C@H](C)N(c3ccc(C4CCC(=O)NC4=O)cc3)C[C@@H]2C)CC1 (some centres unmarked) [P-158] | 16.0 | 65 |  | 
6 | C[C@H](C#N)Nc1cc(-n2ncc3cnc(N)nc32)ncc1C(=O)N[C@H]1CC[C@H](CCN2CCN(c3ccc(C4CCC(=O)NC4=O)cc3)CC2)CC1 (some centres unmarked) [P-159] | 6.1 | 7 | <0.5 | 18
7 | C[C@H](C#N)Nc1cc(-n2ccc3cnc(N)nc32)ncc1C(=O)N[C@H]1CC[C@H](CCN2CCN(c3ccc(C4CCC(=O)NC4=O)cc3)CC2)CC1 (some centres unmarked) [P-163] | 8.4 | 12 | <0.5 | 26
8 | C[C@H](C#N)Nc1cc(-n2ncc3cc(C#N)cnc32)ncc1C(=O)N[C@H]1CC[C@H](CCN2CC3CCC(C2)N3c2ccc(C3CCC(=O)NC3=O)cc2)CC1 (some centres unmarked) [P-164] | 64.0 | 136 | 16.8 | > 5000
9 | C[C@H](C#N)Nc1cc(-n2ncc3cc(C#N)c(N)nc32)ncc1C(=O)N[C@H]1CC[C@H](CCN2CCN(c3ccc(C4CCC(=O)NC4=O)cn3)[C@H](C)C2)CC1 (some centres unmarked) [P-166] | 8.1 | 8 | <0.5 | 21
10 | CS(=O)(=O)N1CCC(Nc2cc(-n3ncc4cc(C#N)cnc43)ncc2-n2cc([C@H]3CC[C@H](CCN4CCN(c5ccc(C6CCC(=O)NC6=O)cc5)CC4)CC3)nn2)CC1 (some centres unmarked) [P-174] | 31.2 | 201 | 2.7 | 14
11 | C[C@H](C#N)Nc1cc(-n2ncc3cc(C#N)c(N)nc32)ncc1C(=O)N[C@H]1CC[C@H](CCN2CCN(c3ccc(C4CCC(=O)NC4=O)cc3)[C@@H](C)C2)CC1 (some centres unmarked) [P-178] | 7.5 | 12 | 0.8 | 1
12 | C[C@H](C#N)Nc1cc(-n2ncc3cc(C#N)cnc32)ncc1C(=O)N[C@H]1CC[C@H](CCN2C[C@H]3C[C@@H](C2)N3c2ccc(C3CCC(=O)NC3=O)cc2)CC1 (some centres unmarked) [P-180] | 7.5 | 6 | 18.9 | 702
13 | C[C@H](C#N)Nc1cc(-n2ncc3cc(C#N)c(N)nc32)ncc1C(=O)N[C@H]1CC[C@H](CCN2CCN(c3ccc(C4CCC(=O)NC4=O)cc3)C(C(F)(F)F)C2)CC1 (some centres unmarked) [P-181] | 27.7 | 168 | 18.3 | 112
14 | C[C@H](C#N)Nc1cc(-n2ncc3cc(C#N)cnc32)ncc1C(=O)N[C@H]1CC[C@H](CCN2[C@@H]3C[C@H]2CN(c2ccc(C4CCC(=O)NC4=O)cc2)C3)CC1 (some centres unmarked) [P-183] | 27.9 | 63 | <0.5 | 12
15 | C[C@H](C#N)Nc1cc(-n2ncc3cc(C#N)c(N)nc32)ncc1C(=O)N[C@H]1CC[C@H](CCN2CCN(c3ccc(C4CCC(=O)NC4=O)cc3)C(C(F)(F)F)C2)CC1 (some centres unmarked) [P-186] | 13.9 | 34 | 5.7 | 29

Continued by falling EC50 (IRAK4 [1]), values first:

Row | ALE THP1 HTRF YMIN (IRAK4 [1]) [%] | EC50 (IRAK4 [1]) [nM] | LVL THP1 HTRF YMIN (IRAK4 [2]) [%] | DC50 (IRAK4 [2]) [nM] | Compound
16 | 6.2 | 7 | <0.5 | 25 | C[C@H](C#N)Nc1cc(-n2ncc3cc(C#N)cnc32)ncc1C(=O)N[C@H]1CC[C@H](CCN2CCN(c3ccc(C4CCC(=O)NC4=O)cc3)[C@H](C)C2)CC1 (some centres unmarked) [P-150]
17 | 6.6 | 6 | <0.5 | 12 | COc1cc(N2CCN(CC[C@H]3CC[C@H](NC(=O)c4cnc(-n5ncc6cc(C#N)c(N)nc65)cc4N[C@H](C)C#N)CC3)C[C@H]2C)ccc1C1CCC(=O)NC1=O (some centres unmarked) [P-161]
18 | 5.5 | 6 | <0.5 | 3 | C[C@H](C#N)Nc1cc(-n2ncc3cc(C#N)c(N)nc32)ncc1C(=O)N[C@H]1CC[C@H](CCN2CCN(c3ccc(C4CCC(=O)NC4=O)cc3Cl)[C@H](C)C2)CC1 (some centres unmarked) [P-168]
19 | 9.4 | 5 | 6.3 | 415 | C[C@H](C#N)Nc1cc(-n2ncc3cc(C#N)cnc32)ncc1C(=O)N[C@H]1CC[C@H](CCN2CCN(c3ccc(C4CCC(=O)NC4=O)cc3)C3(CCC3)C2)CC1 (some centres unmarked) [P-182]
20 | 5.9 | 4 | 0.8 | 13 | C[C@H](C#N)Nc1cc(-c2ccc3cc(C#N)cnn23)ncc1C(=O)N[C@H]1CC[C@H](CCN2CCN(c3ccc(C4CCC(=O)NC4=O)cc3)CC2)CC1 (some centres unmarked) [P-144]
21 | 6.7 | 4 | 6.4 | 32 | C[C@H](C#N)Nc1cc(-n2ncc3cc(C#N)c(N)nc32)ncc1C(=O)N[C@H]1CC[C@H](CCN2CCN(c3ccc(C4CCC(=O)NC4=O)cc3)C(=O)C2)CC1 (some centres unmarked) [P-177]
22 | 6.4 | 3 | 0.6 | 8 | N#Cc1cc2cnn(-c3cc(NC4CC4)c(-n4cc([C@H]5CC[C@H](CCN6CCN(c7ccc(C8CCC(=O)NC8=O)cc7)CC6)CC5)nn4)cn3)c2nc1N (some centres unmarked) [P-162]
23 | 10.0 | 2 |  |  | CC1(Nc2cc(-n3ncc4cc(C#N)c(N)nc43)ncc2-n2cc([C@H]3CC[C@H](CCN4CCN(c5ccc(C6CCC(=O)NC6=O)cc5)CC4)CC3)nn2)CC1 (some centres unmarked) [P-157]
24 | 5.4 | 2 | <0.5 | 6 | C[C@H](C#N)Nc1cc(-n2ncc3cc(C#N)c(N)nc32)ncc1C(=O)N[C@H]1CC[C@H](CCN2CCN(c3ccc(C4CCC(=O)NC4=O)cc3F)[C@H](C)C2)CC1 (some centres unmarked) [P-165]
25 | 5.9 | 2 | <0.5 | 5 | COc1cc(C2CCC(=O)NC2=O)ccc1N1CCN(CC[C@H]2CC[C@H](NC(=O)c3cnc(-n4ncc5cc(C#N)c(N)nc54)cc3N[C@H](C)C#N)CC2)C[C@H]1C (some centres unmarked) [P-167]
26 | 10.1 | 1 | 2.0 | 8 | C[C@H](C#N)Nc1cc(-n2ncc3cc(C#N)cnc32)ncc1-n1cc(C2CCC(CCN3CCN(c4ccc(C5CCC(=O)NC5=O)cc4)[C@@H](C)C3)CC2)nn1 (stereo in doubt) [P-156]
